Data set [1] concerns the target T1, C-X-C chemokine receptor type 4 (Homo sapiens, UniProt P61073). Put plainly: Antagonist activity at CXCR4 receptor in human SUP-T1 assessed as inhibition of SDF-1alpha-induced CXCR4 internalization at 0.1 to 10 uM and measured by flow cytometry analysis. It is filed as functional, cell-based. The note with it: filed as antagonist, dose 0.1-10 µM, DDE = dose-dependent effect. Background: A flow cytometer gives signals particle by particle.

Data set [2] has as its target T1, C-X-C chemokine receptor type 4. Put plainly: Binding affinity to CXCR4 (unknown origin) expressed in CHO cells measured by Scatchard plot analysis. It is filed as cell-based.
In a further data set the test system is CHO. In words: Binding affinity to CXCR4 D262E mutant (unknown origin) expressed in CHO cells at 100 nM measured by 12G5 competitive binding method. It is filed as cell-based. To be noted: Homo sapiens, filed as antagonist.
Data set [3] concerns the target T1, C-X-C chemokine receptor type 4. In words: Antagonist activity at CXCR4 receptor expressed in CHO cells transfected with SRE-luc2P assessed as reduction in SDF-1alpha-mediated ERK/MAPK activation at 10 uM and measured by luciferase reporter gene assay. The note with it: filed as antagonist. It is filed as functional, cell-based. Background: A reporter such as luciferase makes a cellular process visible.

For data set [4] the target is unchanged. In words: Antagonist activity at CXCR4 receptor expressed in CHO cells transfected with CRE-luc2P assessed as reduction in forskolin-stimulated SDF-1alpha-mediated inhibition of cAMP production at 10 uM and measured by luciferase reporter gene assay. It is filed as functional, cell-based. The note with it: filed as antagonist.
In data set [5] the test system is C-X-C chemokine receptor type 4 (Homo sapiens), P61073 [E288D]. Put plainly: Binding affinity to CXCR4 E288D mutant (unknown origin) expressed in CHO cells at 100 nM measured by 12G5 competitive binding method. It is filed as cell-based. The note with it: filed as antagonist.
C-X-C chemokine receptor type 4 (Homo sapiens), P61073 [E288D], sequence (P61073 whole entry E288D): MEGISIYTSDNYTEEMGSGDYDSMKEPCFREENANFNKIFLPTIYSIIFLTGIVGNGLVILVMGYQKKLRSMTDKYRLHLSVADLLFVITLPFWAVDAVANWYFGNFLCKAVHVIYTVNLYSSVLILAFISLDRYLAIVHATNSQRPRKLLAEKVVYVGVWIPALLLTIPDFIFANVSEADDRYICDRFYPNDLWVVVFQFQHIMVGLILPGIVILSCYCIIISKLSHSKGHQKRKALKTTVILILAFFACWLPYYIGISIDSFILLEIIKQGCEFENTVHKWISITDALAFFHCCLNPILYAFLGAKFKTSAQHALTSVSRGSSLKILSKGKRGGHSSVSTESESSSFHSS
Data set [6] has as its system C-X-C chemokine receptor type 4 (Homo sapiens), P61073 [D262A]. In words: Binding affinity to CXCR4 D262A mutant (unknown origin) expressed in CHO cells at 100 nM measured by 12G5 competitive binding method. It is filed as cell-based. To be noted: filed as antagonist.
In data set [7] the target is T1, C-X-C chemokine receptor type 4. In words: Antagonist activity at CXCR4 receptor expressed in CHO cells transfected with […] assessed as reduction in SDF-1alpha-mediated RhoA activation at 10 uM and measured by luciferase reporter gene assay. It is filed as functional, cell-based. The note with it: filed as antagonist.
Data set [8] has the same target. In words: Antagonist activity at CXCR4 receptor in SDF-1alpha-stimulated human SUP-T1 cells measured by calcium mobilization assay. It is filed as functional, cell-based. On the technique in general: Calcium flux is commonly read through the fluorescence of an indicator in the cells.
The next data set concerns CCRF-CEM. In words: Cytotoxicity against human CEM-GFP cells at 0.32 to 25000 nM measured by CellTiter-Blue cell viability assay. It is filed as toxicity, cell-based. To be noted: 25 µM, dose 0.32-25000 nM.
For data set [9], the target named is T1, C-X-C chemokine receptor type 4. Put plainly: Binding affinity to CXCR4 (unknown origin) expressed in CHO cells measured by 12G5 competitive binding method. It is filed as cell-based.
In data set [10] the test system is Human immunodeficiency virus 1. In words: Antiviral activity against HIV1 NL4-3 virus infected in human CEM-GFP cells assessed as reduction in CXCR4-mediated HIV-1 infection at 0.1 to 10000 nM measured by fluorescence assay. To be noted: dose 0.1-10000 nM. It is filed as functional, organism-based.
Data set [11] has as its target T1, C-X-C chemokine receptor type 4. In words: Antagonist activity at CXCR4 receptor expressed in CHO cells transfected with NFAT-RE-luc2P assessed as reduction in SDF-1alpha-mediated calcium signaling pathway at 10 uM and measured by luciferase reporter gene assay. To be noted: filed as antagonist. It is filed as functional, cell-based.
In data set [12] the test system is C-X-C chemokine receptor type 4 (Homo sapiens), P61073 [E288A]. In words: Binding affinity to CXCR4 E288A mutant (unknown origin) expressed in CHO cells at 100 nM measured by 12G5 competitive binding method. To be noted: filed as antagonist. It is filed as cell-based.
C-X-C chemokine receptor type 4 (Homo sapiens), P61073 [E288A], sequence (P61073 whole entry E288A): as the sequence (P61073 whole entry E288D) above, with D288A counted along it
The target of data set [13] is T1, C-X-C chemokine receptor type 4. In words: Antagonist activity at CXCR4 receptor in CHO cells expressing EGFP-CXCR4 assessed as inhibition of SDF-1alpha-induced CXCR4 internalization at 1 to 100 nM and measured by confocal microscopy. The note with it: filed as antagonist, dose 1-100 nM. It is filed as functional, cell-based.
The subject of the next data set is SUP-T1. In words: Cytotoxicity against human SUP-T1 cells at 10 to 50 uM after 72 hrs CellTiter-96 assay. It is filed as toxicity, cell-based. To be noted: sup-t1, 72 h, dose 10-50 µM.

Molecules are shown by their SMILES. Activity calls are given as the source filed them. The rule behind the calls is not given here. Some results are limits rather than exact numbers.

T1 sequence (P61073 whole entry): as the sequence (P61073 whole entry E288D) above, with D288E counted along it
C-X-C chemokine receptor type 4 (Homo sapiens), P61073 [D262A], sequence (P61073 whole entry D262A): as the sequence (P61073 whole entry E288D) above, with D262A, D288E counted along it

Regarding `c1cc(CN2CCCNCCNCCCNCC2)ccc1CN1CCCNCCNCCCNCC1`, in data set [1], the inhibition result is “Dde”.
Broadly, the Kd is a measure of binding affinity in units of concentration. Low readings indicate tighter binding, high ones weaker binding. For `N/C(=N\C(=O)CCCCCNC(=S)Nc1ccc2c(c1)C(=O)OC21c2ccc(O)cc2Oc2cc(O)ccc21)NCCC[C@H](NCc1ccccn1)C(=O)NCc1ccc(CNCCCNC2CCCCC2)cc1`, the affinity in [2], expressed as Kd, was 33 nM.
What is called IC50 is the midpoint of a concentration-inhibition curve. As for `N=C(N)NCCC[C@H](NCc1ccccn1)C(=O)NCc1ccc(CNCCCNC2CCCCC2)cc1`, in [1], the inhibition result was “Dde”. For the same compound, the Activity with CHO was more than 60%; in data set [5], more than 60%; in [6], more than 40%; with CCRF-CEM it was “Non-Toxic”; in data set [12] it was more than 90%; in the data set on SUP-T1, “Non-Toxic”. Also, the outcome in [3], in data set [4], in [7], in data set [10] and in data set [11] was Active. For the same compound, the IC50 was 1.6 nM in data set [8] and 12 nM in data set [9]. Also, in data set [13], the inhibition result is “Active”.

Values taken from ChEMBL document CHEMBL5154729, “A fragment integrational approach to GPCR inhibition: Identification of a high affinity small molecule CXCR4 antagonist” (Eur J Med Chem, 2022).
